Reference: patent US12233161B1, “Lipids and lipid nanoparticle formulations” (LONGUIDE BIOPHARMA CORPORATION, priority 2024, dated 2025)

Key:
[1] = tested on: mice; test: In vivo delivery of FLuc-mRNA lipid nanoparticles in mice, in vivo imaging (IVIS)
How it was run: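 Mice (n=3) received about 75 μL FLuc-mRNA LNP per mouse intramuscularly (rectus femoris), intravenously (tail vein), intraperitoneally or subcutaneously (back). After injection, D-luciferin (200 μL, 15 mg/mL) was given i.p. 10-15 min before IVIS imaging.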

[2] = Particle size and PDI of nucleic acid lipid nanoparticle preparations by dynamic light scattering; type: physicochemical
Procedure: The 7.5 μL nucleic acid lipid nanoparticle solution (containing approximately 0.04 mg/mL mRNA) was taken and added with 200 μL ultrapure water, mixed by gentle blowing using a pipette tip, and the particle size of the nanopreparation was detected by dynamic lightscattering (DLS) using a Malvern Dynamic Light Scattering Instrument (Malvern Instruments Ltd., ZEN3700, UK).
27.5 μL nucleic acid lipid nanoparticle solution (containing about 0.04 mg/mL mRNA) was taken and added with 200 μL ultrapure water. A pipette tip was used to gently blow the sample and mix well. The particle size of the nanopreparation was detected by Malvern Dynamic Light Scattering Instrument (Malvern Instruments Ltd., ZEN3700, UK). After the detection, the sample was recovered to an EP tube, and 600 μL of ultrapure water was added, gently blown with a pipette tip, and the potential of the nanopreparation was measured by a Malvern particle size meter.

[3] = DMG-PEG2000:DSPC:Chol:Lipid 1.00:11.50:22.50:65.00, N/P 65, IV, liver
[4] = DMG-PEG2000:DSPC:Chol:Lipid 1.00:11.50:22.50:65.00, N/P 65, IV, lung
[5] = DMG-PEG2000:DSPC:Chol:Lipid 1.00:11.50:22.50:65.00, N/P 65, IV, spleen
[6] = DMG-PEG2000:DSPC:Chol:Lipid 2.50:11.50:51.00:35.00, N/P 50, IV, liver
[7] = DMG-PEG2000:DSPC:Chol:Lipid 2.50:11.50:51.00:35.00, N/P 50, IV, lung
[8] = DMG-PEG2000:DSPC:Chol:Lipid 2.50:11.50:51.00:35.00, N/P 50, IV, spleen
[9] = DMG-PEG2000:DSPC:Chol:Lipid 1.00:11.50:22.50:65.00, N/P 65, mRNA LNP
[10] = DMG-PEG2000:DSPC:Chol:Lipid 1.00:16.00:48.00:35.00, N/P 35, mRNA LNP
[11] = DMG-PEG2000:DSPC:Chol:Lipid 1.00:16.00:63.00:20.00, N/P 35, mRNA LNP
[12] = DMG-PEG2000:DSPC:Chol:Lipid 2.50:11.50:51.00:35.00, N/P 50, mRNA LNP
[13] = DMG-PEG2000:DSPC:Chol:compound 1.00:10.00:33.00:56.00, N/P 42
[14] = DMG-PEG2000:DSPC:Chol:Lipid 1.00:8.00:51.00:40.00, N/P 6.7, IV, liver
[15] = DMG-PEG2000:DSPC:Chol:Lipid 1.00:8.00:51.00:40.00, N/P 6.7, IV, lung
[16] = DMG-PEG2000:DSPC:Chol:Lipid 1.00:8.00:51.00:40.00, N/P 6.7, IV, spleen
[17] = DMG-PEG2000:DSPC:Chol:Lipid 1.50:8.00:30.50:60.00, N/P 8.3, IV, liver
[18] = DMG-PEG2000:DSPC:Chol:Lipid 1.50:8.00:30.50:60.00, N/P 8.3, IV, lung
[19] = DMG-PEG2000:DSPC:Chol:Lipid 1.50:8.00:30.50:60.00, N/P 8.3, IV, spleen
[20] = DMG-PEG2000:DSPC:Chol:Lipid 1.00:8.00:51.00:40.00, N/P 6.7, mRNA LNP
[21] = DMG-PEG2000:DSPC:Chol:Lipid 1.50:8.00:30.50:60.00, N/P 8.3, mRNA LNP
[22] = DMG-PEG2000:DSPC:Chol:Lipid 1.63:12.99:45.38:40.00, N/P 25, mRNA LNP
[23] = DMG-PEG2000:DSPC:Chol:Lipid 1.40:11.15:38.95:48.50, N/P 45, mRNA LNP
[24] = DMG-PEG2000:DSPC:Chol:Lipid 1.77:14.07:49.16:35.00, N/P 45, mRNA LNP
[25] = DMG-PEG2000:DSPC:Chol:Lipid 1.40:11.15:38.95:48.50, N/P 60, mRNA LNP
[26] = DMG-PEG2000:DSPC:Chol:Lipid 1.77:14.07:49.16:35.00, N/P 60, mRNA LNP

For CCCCCCCCCCNC(=O)C(O)CN(CCCN(C)CCCN(CC(O)C(=O)NCCCCCCCCCC)CC(O)C(=O)NCCCCCCCCCC)CC(O)C(=O)NCCCCCCCCCC (centres unmarked) [Compound L0265], the IVIS ([1]; DMG-PEG2000:DSPC:Chol:Lipid 1.00:11.50:22.50:65.00, N/P 65, IV, body) was 1.59 × 10^8, the “% of organ targeting” value [1, 3] was 0.76% and the IVIS [1, 3] was 7.76 × 10^6. For the same compound, the “% of organ targeting” value [1, 4] was 97.75%, the IVIS [1, 4] was 1.00 × 10^9 and the “% of organ targeting” value [1, 5] was 1.50%. The IVIS [1, 5] was 1.53 × 10^7, the IVIS ([1]; DMG-PEG2000:DSPC:Chol:Lipid 1.00:16.00:48.00:35.00, N/P 35, IM, whole body scan) was 6.15 × 10^7 and the IVIS ([1]; DMG-PEG2000:DSPC:Chol:Lipid 1.00:16.00:63.00:20.00, N/P 35, IM, whole body scan) was 6.47 × 10^6. The IVIS ([1]; DMG-PEG2000:DSPC:Chol:Lipid 2.50:11.50:51.00:35.00, N/P 50, IV, body) was 4.45 × 10^7, the “% of organ targeting” value [1, 6] was 21.35% and the IVIS [1, 6] was 6.87 × 10^6. The “% of organ targeting” value [1, 7] was 20.23%, the IVIS [1, 7] was 6.51 × 10^6 and the “% of organ targeting” value [1, 8] was 58.42%. For the same compound, the IVIS [1, 8] was 1.88 × 10^7, the IVIS ([1]; IV, body, DMG-PEG2000:DSPC:Chol:compound 1.00:10.00:33.00:56.00, N/P 42, Fluc-mRNA) was 2.04E+08 and the “% of organ targeting” value ([1]; IV, liver, DMG-PEG2000:DSPC:Chol:compound 1.00:10.00:33.00:56.00, N/P 42) was 0.55%. For the same compound, the IVIS ([1]; IV, liver, DMG-PEG2000:DSPC:Chol:compound 1.00:10.00:33.00:56.00, N/P 42, Fluc-mRNA) was 2.18E+06, the “% of organ targeting” value ([1]; IV, lung, DMG-PEG2000:DSPC:Chol:compound 1.00:10.00:33.00:56.00, N/P 42) was 98.43% and the IVIS ([1]; IV, lung, DMG-PEG2000:DSPC:Chol:compound 1.00:10.00:33.00:56.00, N/P 42, Fluc-mRNA) was 3.94E+08. The “% of organ targeting” value ([1]; IV, spleen, DMG-PEG2000:DSPC:Chol:compound 1.00:10.00:33.00:56.00, N/P 42) was 1.03%, the IVIS ([1]; IV, spleen, DMG-PEG2000:DSPC:Chol:compound 1.00:10.00:33.00:56.00, N/P 42, Fluc-mRNA) was 4.11E+06 and the “in vivo delivery efficiency as compared to the benchmark compound SM102” value ([1]; certain formulations, Table 2) was “superior in vivo delivery efficiency”. The “tissue-targeting specificity (lung vs spleen depending on molar percentage of compound)” value ([1]; certain formulations, Table 2) was “strong tissue-targeting specificity”, the PDI [2, 9] was 0.10 ± 0.02 and the Particle size [2, 9] was 87.42 ± 0.32 nm. The PDI [2, 10] was 0.11 ± 0.02, the Particle size [2, 10] was 115.10 ± 0.87 nm and the PDI [2, 11] was 0.11 ± 0.02. It also gave a Particle size [2, 11] of 135.03 ± 0.67 nm, a PDI [2, 12] of 0.12 ± 0.01 and a Particle size [2, 12] of 122.50 ± 1.15 nm. The PDI [2, 13] was 0.08 and the “Particle size (nm)” value [2, 13] was 101.60 nm.
With CCCCCCCCCCNC(=O)C(O)CN(CCN(C)CCN(CC(O)C(=O)NCCCCCCCCCC)CC(O)C(=O)NCCCCCCCCCC)CC(O)C(=O)NCCCCCCCCCC (centres unmarked) [Compound L0266] the IVIS ([1]; DMG-PEG2000:DSPC:Chol:Lipid 1.00:8.00:51.00:40.00, N/P 6.7, IV, body) was 3.13 × 10^7, the “% of organ targeting” value [1, 14] was 28.98% and the IVIS [1, 14] was 3.13 × 10^6. The “% of organ targeting” value [1, 15] was 24.44%, the IVIS [1, 15] was 2.64 × 10^6 and the “% of organ targeting” value [1, 16] was 46.57%. For the same compound, the IVIS [1, 16] was 5.03 × 10^6, the IVIS ([1]; DMG-PEG2000:DSPC:Chol:Lipid 1.50:8.00:30.50:60.00, N/P 8.3, IV, body) was 2.53 × 10^7 and the “% of organ targeting” value [1, 17] was 3.53%. The IVIS [1, 17] was 1.72 × 10^6, the “% of organ targeting” value [1, 18] was 89.03% and the IVIS [1, 18] was 4.34 × 10^7. The “% of organ targeting” value [1, 19] was 7.45%, the IVIS [1, 19] was 3.63 × 10^6 and the IVIS ([1]; DMG-PEG2000:DSPC:Chol:Lipid 1.63:12.99:45.38:40.00, N/P 25, IM, whole body scan) was 2.20 × 10^6. For the same compound, the “tissue-targeting specificity (lung vs spleen depending on molar percentage of compound)” value ([1]; certain formulations, Table 2) was “strong tissue-targeting specificity”, the PDI [2, 20] was 0.10 ± 0.01 and the Particle size [2, 20] was 80.47 ± 1.22 nm. The PDI [2, 21] was 0.17 ± 0.02, the Particle size [2, 21] was 108.70 ± 0.82 nm and the PDI [2, 22] was 0.17 ± 0.01. The Particle size [2, 22] was 85.98 ± 1.18 nm.
For CCCCCCCCCCCCNC(=O)C(O)CN(CCCN(CC(O)C(=O)NCCCCCCCCCCCC)CC(O)C(=O)NCCCCCCCCCCCC)CCCN(CC(O)C(=O)NCCCCCCCCCCCC)CC(O)C(=O)NCCCCCCCCCCCC (centres unmarked) [Compound L0267], the IVIS ([1]; DMG-PEG2000:DSPC:Chol:Lipid 1.40:11.15:38.95:48.50, N/P 45, IV, whole body scan) was 3.89 × 10^5, the IVIS ([1]; DMG-PEG2000:DSPC:Chol:Lipid 1.77:14.07:49.16:35.00, N/P 45, IM, whole body scan) was 1.05 × 10^6 and the PDI [2, 23] was 0.16 ± 0.02. It also gave a Particle size [2, 23] of 148.37 ± 1.40 nm, a PDI [2, 24] of 0.14 ± 0.01 and a Particle size [2, 24] of 121.47 ± 0.72 nm.
In the case of CCCCCCCCCCNC(=O)C(O)CN(CCCN(CC(O)C(=O)NCCCCCCCCCC)CC(O)C(=O)NCCCCCCCCCC)CCCN(CC(O)C(=O)NCCCCCCCCCC)CC(O)C(=O)NCCCCCCCCCC (centres unmarked) [Compound L0268], the IVIS ([1]; DMG-PEG2000:DSPC:Chol:Lipid 1.40:11.15:38.95:48.50, N/P 60, IV, whole body scan) is reported as 3.80 × 10^5, the IVIS ([1]; DMG-PEG2000:DSPC:Chol:Lipid 1.77:14.07:49.16:35.00, N/P 60, IM, whole body scan) is reported as 5.86 × 10^5 and the PDI [2, 25] is reported as 0.07 ± 0.01. It also gave a Particle size [2, 25] of 116.83 ± 1.07 nm, a PDI [2, 26] of 0.08 ± 0.01 and a Particle size [2, 26] of 95.36 ± 0.61 nm.
With CCCCCCCCCCCCNC(=O)C(CN(CCCN(C)CCCN(CC(OC(=O)CCCCC)C(=O)NCCCCCCCCCCCC)CC(OC(=O)CCCCC)C(=O)NCCCCCCCCCCCC)CC(OC(=O)CCCCC)C(=O)NCCCCCCCCCCCC)OC(=O)CCCCC (centres unmarked) [Compound L0389] the IVIS ([1]; Fluc-mRNA LNP, route IM, organ not given, formulation, molar ratio and N/P as in the table) was 1.99E+04 and the IVIS ([1]; Fluc-mRNA LNP, route IV, organ not given, formulation, molar ratio and N/P as in the table) was 2.50E+05.
